Assay [1] addresses T1, hNav1.7 (Homo sapiens (Human), UniProt Q15858). In words: Tritiated aryl sulfonamide binding to membranes from cells expressing hNav1.7 and the β1 subunit (competitive binding). The note with it: membranes with hNav1.7 and β1 subunit; [3H]compound displacement, 18 h, room temperature; read-out: NaV1.7 395 Memb Binding (IC50). Summed up:
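Competitive displacement of 100 μM [3H]-labelled tritiated aryl sulfonamide from hNav1.7/β1 membranes, 18 h at room temperature in 100 mM NaCl, 20 mM Tris HCl pH 7.4. Non-specific binding defined with 1 μM unlabelled compound. Filter-bound radioactivity measured by liquid scintillation counting.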

Assay [2] addresses hNav1.5 (Homo sapiens (Human), UniProt Q14524). In words: Patch voltage clamp electrophysiology (PatchXpress), HEK-293 cells, inactivated state block. The note with it: read-out: EP_PX 293 hNav1.5 (IC50), β1 coexpressed, holding −60 mV.
The target of assay [3] is T1, hNav1.7. The assay is described as above. The format is cell-based. Conditions: HEK-293 cells, β1 coexpressed; inactivated state, holding −60 mV; read-out: EP_PX 293 hNav1.7 (IC50).

hNav1.5, sequence (Q14524 whole entry): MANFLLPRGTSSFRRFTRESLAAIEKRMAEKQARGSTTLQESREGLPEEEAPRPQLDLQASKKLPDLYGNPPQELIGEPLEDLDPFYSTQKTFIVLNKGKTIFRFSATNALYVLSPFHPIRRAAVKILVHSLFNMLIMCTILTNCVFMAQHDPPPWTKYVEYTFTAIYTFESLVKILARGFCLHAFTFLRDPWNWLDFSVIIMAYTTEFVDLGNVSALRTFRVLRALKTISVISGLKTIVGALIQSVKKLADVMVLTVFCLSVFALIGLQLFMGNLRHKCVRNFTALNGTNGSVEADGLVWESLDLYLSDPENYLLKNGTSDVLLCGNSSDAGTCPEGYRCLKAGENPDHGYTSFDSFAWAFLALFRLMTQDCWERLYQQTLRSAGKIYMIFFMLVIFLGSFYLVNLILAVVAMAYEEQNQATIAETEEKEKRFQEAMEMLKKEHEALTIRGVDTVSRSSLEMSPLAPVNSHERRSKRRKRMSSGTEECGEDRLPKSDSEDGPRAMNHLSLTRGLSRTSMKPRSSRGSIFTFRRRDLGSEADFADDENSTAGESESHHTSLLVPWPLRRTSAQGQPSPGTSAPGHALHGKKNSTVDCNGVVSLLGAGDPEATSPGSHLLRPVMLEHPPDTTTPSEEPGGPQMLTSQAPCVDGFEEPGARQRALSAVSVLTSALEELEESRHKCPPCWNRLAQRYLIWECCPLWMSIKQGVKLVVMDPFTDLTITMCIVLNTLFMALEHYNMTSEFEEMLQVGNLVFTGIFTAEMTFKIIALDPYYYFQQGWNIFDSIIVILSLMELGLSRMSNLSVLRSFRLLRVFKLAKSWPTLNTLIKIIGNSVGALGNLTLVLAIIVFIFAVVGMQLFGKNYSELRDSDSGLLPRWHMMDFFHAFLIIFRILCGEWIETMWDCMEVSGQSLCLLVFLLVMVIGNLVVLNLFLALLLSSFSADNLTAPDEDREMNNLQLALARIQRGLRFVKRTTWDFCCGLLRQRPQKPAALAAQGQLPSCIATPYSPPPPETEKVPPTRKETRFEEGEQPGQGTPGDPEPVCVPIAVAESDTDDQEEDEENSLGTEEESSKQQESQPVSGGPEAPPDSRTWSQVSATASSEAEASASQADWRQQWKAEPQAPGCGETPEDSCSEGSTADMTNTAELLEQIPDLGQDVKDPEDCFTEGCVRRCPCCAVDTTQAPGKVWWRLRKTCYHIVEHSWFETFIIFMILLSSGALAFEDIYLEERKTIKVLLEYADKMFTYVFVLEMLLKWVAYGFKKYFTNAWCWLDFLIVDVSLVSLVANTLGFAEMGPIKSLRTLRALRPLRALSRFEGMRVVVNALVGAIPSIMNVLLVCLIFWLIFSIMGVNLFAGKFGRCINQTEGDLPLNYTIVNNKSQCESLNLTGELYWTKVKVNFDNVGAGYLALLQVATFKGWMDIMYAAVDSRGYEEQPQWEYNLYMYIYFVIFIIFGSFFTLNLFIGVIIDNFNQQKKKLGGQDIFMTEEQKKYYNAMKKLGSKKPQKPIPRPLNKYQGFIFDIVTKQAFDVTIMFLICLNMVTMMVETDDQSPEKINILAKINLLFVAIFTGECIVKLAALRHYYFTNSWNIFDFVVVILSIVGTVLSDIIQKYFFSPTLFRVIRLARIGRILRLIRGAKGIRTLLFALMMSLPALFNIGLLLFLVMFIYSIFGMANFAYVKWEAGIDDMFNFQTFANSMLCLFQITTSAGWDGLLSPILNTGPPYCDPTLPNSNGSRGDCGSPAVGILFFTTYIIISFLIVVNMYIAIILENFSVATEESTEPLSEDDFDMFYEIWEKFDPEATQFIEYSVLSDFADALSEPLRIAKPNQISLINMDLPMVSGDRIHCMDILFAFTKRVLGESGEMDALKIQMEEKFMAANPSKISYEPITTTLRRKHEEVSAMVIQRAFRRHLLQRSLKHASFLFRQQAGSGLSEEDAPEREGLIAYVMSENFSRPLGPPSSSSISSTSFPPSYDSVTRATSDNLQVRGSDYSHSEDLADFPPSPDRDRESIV
T1 sequence (Q15858 whole entry, looked up): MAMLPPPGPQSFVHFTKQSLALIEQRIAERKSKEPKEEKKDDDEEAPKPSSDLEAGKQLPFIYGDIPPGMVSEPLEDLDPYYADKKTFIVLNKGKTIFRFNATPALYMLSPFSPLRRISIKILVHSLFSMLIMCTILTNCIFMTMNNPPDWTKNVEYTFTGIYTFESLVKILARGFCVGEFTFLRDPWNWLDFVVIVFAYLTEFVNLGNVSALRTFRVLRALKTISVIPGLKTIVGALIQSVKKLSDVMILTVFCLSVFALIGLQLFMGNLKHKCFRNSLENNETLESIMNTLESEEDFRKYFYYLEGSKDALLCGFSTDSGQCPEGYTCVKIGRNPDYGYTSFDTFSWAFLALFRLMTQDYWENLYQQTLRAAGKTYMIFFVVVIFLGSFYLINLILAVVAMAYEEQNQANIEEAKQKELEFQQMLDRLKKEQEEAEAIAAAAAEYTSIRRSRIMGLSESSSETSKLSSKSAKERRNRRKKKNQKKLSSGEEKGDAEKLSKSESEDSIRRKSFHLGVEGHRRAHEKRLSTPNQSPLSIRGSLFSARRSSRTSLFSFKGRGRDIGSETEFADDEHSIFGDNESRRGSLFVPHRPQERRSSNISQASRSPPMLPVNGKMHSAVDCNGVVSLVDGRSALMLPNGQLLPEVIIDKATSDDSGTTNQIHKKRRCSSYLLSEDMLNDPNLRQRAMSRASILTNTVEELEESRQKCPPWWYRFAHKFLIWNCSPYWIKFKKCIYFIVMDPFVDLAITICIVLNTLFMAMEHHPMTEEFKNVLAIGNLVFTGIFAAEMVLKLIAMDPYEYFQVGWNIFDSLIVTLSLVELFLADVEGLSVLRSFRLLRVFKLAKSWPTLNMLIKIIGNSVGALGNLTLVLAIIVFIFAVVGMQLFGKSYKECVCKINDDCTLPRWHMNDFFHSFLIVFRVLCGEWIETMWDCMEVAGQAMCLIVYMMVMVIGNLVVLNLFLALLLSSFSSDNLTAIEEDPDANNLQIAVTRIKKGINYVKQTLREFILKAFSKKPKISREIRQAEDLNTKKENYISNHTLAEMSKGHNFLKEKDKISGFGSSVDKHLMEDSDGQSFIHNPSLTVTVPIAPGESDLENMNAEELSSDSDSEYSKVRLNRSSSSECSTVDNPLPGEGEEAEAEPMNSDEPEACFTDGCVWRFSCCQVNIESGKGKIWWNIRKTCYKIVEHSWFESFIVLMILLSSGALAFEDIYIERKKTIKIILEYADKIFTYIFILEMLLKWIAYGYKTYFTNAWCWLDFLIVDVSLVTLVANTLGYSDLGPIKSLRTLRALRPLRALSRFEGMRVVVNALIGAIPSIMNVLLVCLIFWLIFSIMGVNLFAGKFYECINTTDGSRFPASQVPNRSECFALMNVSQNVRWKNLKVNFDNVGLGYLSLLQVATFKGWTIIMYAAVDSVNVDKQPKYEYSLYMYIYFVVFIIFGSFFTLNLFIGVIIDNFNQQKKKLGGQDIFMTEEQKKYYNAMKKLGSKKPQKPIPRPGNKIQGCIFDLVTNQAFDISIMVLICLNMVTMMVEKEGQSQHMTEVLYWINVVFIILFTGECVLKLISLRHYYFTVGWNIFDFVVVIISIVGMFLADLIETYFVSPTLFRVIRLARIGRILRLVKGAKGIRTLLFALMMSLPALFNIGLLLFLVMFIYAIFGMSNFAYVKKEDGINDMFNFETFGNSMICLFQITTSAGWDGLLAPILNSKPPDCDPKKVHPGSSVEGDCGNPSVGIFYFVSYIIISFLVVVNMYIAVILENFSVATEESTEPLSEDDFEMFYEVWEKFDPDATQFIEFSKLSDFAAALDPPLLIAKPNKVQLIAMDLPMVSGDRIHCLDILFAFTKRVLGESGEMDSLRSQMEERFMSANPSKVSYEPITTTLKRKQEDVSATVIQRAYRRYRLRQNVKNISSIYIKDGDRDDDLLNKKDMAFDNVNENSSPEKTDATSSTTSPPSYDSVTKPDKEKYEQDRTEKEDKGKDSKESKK
T1 sequence (Q07699 whole entry partner, looked up): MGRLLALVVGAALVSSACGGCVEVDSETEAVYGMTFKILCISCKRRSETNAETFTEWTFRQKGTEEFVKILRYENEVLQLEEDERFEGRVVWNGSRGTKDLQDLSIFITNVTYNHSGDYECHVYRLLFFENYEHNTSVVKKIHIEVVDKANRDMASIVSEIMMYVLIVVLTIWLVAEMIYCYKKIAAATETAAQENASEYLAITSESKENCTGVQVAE

As a reminder, the IC50 is the concentration that gives 50% inhibition. For `COCCS(=O)(=O)NC(=O)c1cnc(OCC23CC4CC(CC(C4)C2)C3)c(C2CC2)c1`, the IC50 in assay [1] was determined as 0.72 µM; in assay [2], 15.3 µM; in assay [3], 0.37 µM.

For the molecule `O=C(NS(=O)(=O)C1CC1)c1cc(C2CC2)c(OCC23CC4(F)CC(F)(CC(F)(C4)C2)C3)cc1F`, the results for the IC50 in assay [1], in assay [2] and in assay [3] were 0.005 µM, 0.43 µM and 0.02 µM, respectively.

In the case of `CS(=O)(=O)NC(=O)c1cnc(OCC23CC4CC(CC(C4)C2)C3)c(C2CC2)c1`, the half-maximal inhibitory concentration (IC50) turned out to be 0.072 µM in assay [1], 2.58 µM in assay [2] and 0.0179 µM in assay [3].

For the molecule `CS(=O)(=O)NC(=O)c1ccc(OCC23CC4CC(CC(C4)C2)C3)c(C2CC2)c1`, the IC50 in assay [1] is 0.003 µM; in assay [2], 0.7 µM; in assay [3], 0.00131 µM.

With `COC1CN(S(=O)(=O)NC(=O)c2cc(C3CC3)c(OCC34CC5CC(CC(C5)C3)C4)cc2F)C1`, the IC50 in assay [1] amounted to 0.003 µM; in assay [2], 0.144 µM; in assay [3], 0.0249 µM.

As for `O=C(NS(=O)(=O)C1CC1)c1cc(C2CC2)c(OCC23CC4CC(C2)C(F)(F)C(C4)C3)cc1F`, the IC50 is 0.003 µM in assay [1], 0.13 µM in assay [2] and 0.008 µM in assay [3].

Regarding `O=C(NS(=O)(=O)NCCCO)c1cc(C2CC2)c(OCC23CC4CC(CC(C4)C2)C3)cc1F`, the IC50 was 0.023 µM in assay [1], 0.022 µM in assay [2] and 0.0092 µM in assay [3].

As to `CS(=O)(=O)NC(=O)c1ccc(OCC23CC4CC(CC(C4)C2)C3)c(Br)c1`, the figures for the IC50 in assay [1], in assay [2] and in assay [3] were 0.051 µM, 1.95 µM and 0.0076 µM, respectively.

As for `O=C(NS(=O)(=O)N1CCC1)c1cc(C2CC2)c(OCC2(C(F)(F)F)CCCC2)cc1F`, the IC50 was 0.004 µM in assay [1], 0.09 µM in assay [2] and 0.002 µM in assay [3].

For the molecule `O=C(NS(=O)(=O)C1CC1)c1cc(C2CC2)c(OCC2(C(F)(F)F)CCCCC2)cc1F` [Example 446, 5-cyclopropyl-N-(cyclopropylsulfonyl)-2-fluoro-4-((1-(trifluoromethyl)-cyclohexyl)methoxy)benzamide], the IC50 in assay [1] was found to be 0.0016 µM; in assay [2] it was 0.16 µM; in assay [3], 0.0031 µM.

In the case of `O=C(NS(=O)(=O)N1CCC1)c1cc(C2CC2)c(OCC2C3CC4CC(C3)CC2C4)cc1F` (stereo not drawn), the IC50 in assay [1] came to 0.001 µM; in assay [2], 0.13 µM; in assay [3], 0.009 µM.

Regarding `CS(=O)(=O)NC(=O)c1cc(Cl)c(OCC2CC3C4CCC(C4)C3C2)cc1F` (stereo not drawn) [Example 445], the IC50 was determined as 0.0093 µM in assay [1], 0.743 µM in assay [2] and 0.0036 µM in assay [3].

For `CS(=O)(=O)NC(=O)c1cc(C2CC2)c(OCC2CN(C(c3ccccc3)c3ccccc3)C2)cc1F` [Example 440, 4-((1-benzhydrylazetidin-3-yl)methoxy)-5-cyclopropyl-2-fluoro-N-(methylsulfonyl)benzamide], the concentration for half-maximal inhibition (IC50) in assay [1] turned out to be 0.011 µM; in assay [2] it was 2.54 µM; in assay [3] it was 0.014 µM.

Values taken from patent US8952169B2 (Genentech, Inc., priority 2012, dated 2015).
